Results reported in PubChem BioAssay (NCI).
Values joined by “and” are separate entries in the source; they are usually repeats but may differ in a detail not shown here. Identical values can stand only once.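 Compound exposure: 48 hours, 5 concentrations, 96-well plates. Here, GI50 denotes the concentration required for 50% inhibition of growth. Definition used: TGI = concentration required for complete inhibition of growth.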

Legend:
Assay in all cases: inhibition of tumour cell growth, NCI panel, 48 h
COLO 205 colon = tested on: COLO 205 colon
HCT-116 colon = tested on: HCT-116 colon
KM12 colon = tested on: KM12 colon
LOX IMVI melanoma = tested on: LOX IMVI melanoma
RPMI-8226 leukemia = tested on: RPMI-8226 leukemia
SK-MEL-2 melanoma = tested on: SK-MEL-2 melanoma
SK-MEL-5 melanoma = tested on: SK-MEL-5 melanoma
SN12C renal = tested on: SN12C renal
SNB-19 CNS = tested on: SNB-19 CNS
SR leukemia = tested on: SR leukemia

Row | Compound | GI50 (COLO 205 colon) | TGI (COLO 205 colon) | GI50 (HCT-116 colon) | TGI (HCT-116 colon) | GI50 (KM12 colon) | TGI (KM12 colon) | GI50 (LOX IMVI melanoma) | TGI (LOX IMVI melanoma) | GI50 (RPMI-8226 leukemia) | TGI (RPMI-8226 leukemia) | GI50 (SK-MEL-2 melanoma) | TGI (SK-MEL-2 melanoma) | GI50 (SK-MEL-5 melanoma) | TGI (SK-MEL-5 melanoma) | GI50 (SN12C renal) | TGI (SN12C renal) | GI50 (SNB-19 CNS) | TGI (SNB-19 CNS) | GI50 (SR leukemia) | TGI (SR leukemia)
1 | CC(C)(C)c1ccc(Oc2ccc(N)cn2)cc1 | 50.7 µM | > 100 µM | 47.5 µM | > 100 µM | 44.2 µM | > 100 µM | 60.1 µM | > 100 µM | 1.99 µM | 41.2 µM | > 100 µM | > 100 µM | 25.8 µM | 79.2 µM | 4.64 µM | > 100 µM | > 100 µM | > 100 µM | 30 µM | > 100 µM
2 | CCN(CC)CCCNc1cc(OC)cc2nc3cc(Cl)ccc3nc12 | 0.956 µM | 2.26 µM | 0.508 µM | 3.63 µM | 1.3 µM | 3.43 µM | 0.913 µM | 2.25 µM | 2.53 µM | 6.25 µM | 1.75 µM | 3.43 µM | 1.59 µM | 2.96 µM | 1.09 µM | 14.5 µM | 2.77 µM | 11.7 µM | 0.633 µM | 18 µM
3 | CC1C(C)N(C(=O)CCl)c2ccccc2N1C(=O)CCl (centres undefined) | 0.399 µM | 0.973 µM | 0.185 µM | 0.406 µM | 0.55 µM | 1.34 µM | 0.235 µM | 0.729 µM | 0.21 µM | 0.649 µM | 1.66 µM | 4.54 µM | 1.27 µM | 2.85 µM | 0.793 µM | 3.05 µM | 2.16 µM | 5.4 µM | 0.396 µM | 2.02 µM
4 | O=S(=O)(NNc1ccccc1)c1ccccc1 |  | 22.3 µM |  | 29.4 µM |  | 18.1 µM |  | 13.6 µM |  | 46.4 µM |  | 44.3 µM |  | 12.7 µM |  | 18.7 µM |  | > 100 µM |  | 53.1 µM
5 | CNC(=O)c1cc(Oc2ccc(NC(=O)Nc3ccc(Cl)c(C(F)(F)F)c3)c(F)c2)ccn1 | 2.28 µM and 1.36 µM | 8.52 µM and 5.74 µM | 0.944 µM and 0.792 µM | 10.8 µM and 8.8 µM | 1.9 µM and 1.49 µM | 7.86 µM and > 10 µM | 1.12 µM and 0.787 µM | 6.93 µM and > 10 µM | 1.71 µM and 1.83 µM | 4.96 µM and 7.32 µM | 0.664 µM and 0.336 µM | 2.13 µM and 1.86 µM | 1.5 µM and 1.35 µM | 2.94 µM and 3.16 µM | 2.35 µM and 2.24 µM | 12.1 µM and > 10 µM | 4.27 µM and 4.06 µM | > 41.6 µM | 1.9 µM and 2.63 µM | 4.38 µM and > 10 µM
6 | O=C(/C=C\c1ccc([N+](=O)[O-])cc1)c1ccccc(=O)c1O |  | 0.967 µM |  | 2.35 µM |  | 2.87 µM |  | 2.86 µM |  | 4.5 µM |  | 6.93 µM |  | 2.38 µM |  | > 100 µM |  | 16.8 µM |  | > 100 µM
7 | CNC(=O)c1c(NC(=O)c2ccc(C(C)(C)C)cc2)sc2c1CCC(=O)C2 | 0.2 µM | 0.462 µM | 0.0971 µM | 1.4 µM | 0.313 µM | 1.34 µM | 0.19 µM | 1.31 µM | 0.0553 µM | 0.511 µM | 0.508 µM | 1.96 µM | 0.349 µM | 1.33 µM | 0.333 µM | 1.4 µM | 0.321 µM | 1.39 µM | 0.107 µM | 
8 | NC(=O)c1cc([N+](=O)[O-])c(Cl)c([N+](=O)[O-])c1Cl | 0.369 µM | 1.47 µM | 0.228 µM | 0.582 µM | 1.61 µM | 3.02 µM | 0.33 µM | 1.16 µM | 0.661 µM | 3.61 µM | 1.71 µM | 3.16 µM | 1.71 µM | 3.11 µM | 1.75 µM | 3.27 µM | 2.29 µM | 5.93 µM | 0.516 µM | 4.8 µM
9 | O=C(CCCN1CCC(O)(c2ccc(Cl)cc2)CC1)c1ccc(F)cc1 |  | 43.2 µM |  | 33.6 µM |  | 39.1 µM |  | 33.1 µM |  | > 100 µM |  | 39.5 µM |  | 29.7 µM |  | > 100 µM |  | > 100 µM |  | > 100 µM
10 | O=S(=O)(O)c1cc(O)c(N=Nc2ccc(O)cc2O)c2ccccc12 |  | > 100 µM |  | > 100 µM |  | > 100 µM |  | > 100 µM |  | > 100 µM |  | > 100 µM |  | > 100 µM |  | > 100 µM |  | > 100 µM |  | > 100 µM
11 | COc1cccc(CC(C)=C(c2ccc(OCCN3CCCCC3)cc2)c2ccc(OCCN3CCCCC3)cc2)c1 | 1.41 µM | 3.73 µM | 2.25 µM | 4.26 µM | 1.93 µM | 4.11 µM | 1.64 µM | 3.52 µM | 1.62 µM | 4.41 µM | 2.73 µM | 5.71 µM | 2.23 µM | 4.17 µM | 2.02 µM | 4.04 µM | 2.11 µM | 4.13 µM | 0.392 µM | 1.2 µM
